Measured values: US11999806B2, “Broad-spectrum polypeptide against enterovirus and application thereof” (WUHAN INSTITUTE OF VIROLOGY, CHINESE ACADEMY OF SCIENCES, priority 2018, dated 2024)
Where “and” joins values, the source holds several entries; their conditions need not be identical. Equal values may be shown once. Read-outs that look alike come from different tables or passages of the source. Non-standard residues stand in square brackets, D forms with d. Residues, ends and D or L forms follow the SMILES beside them. No end group written: not given here.

Tests used:
[1] = test system: EV71; assay: Anti-EV71 efficiency in RD cells, viral RNA by qRT-PCR; type: cell-based, enterovirus 71; conditions: for Relative viral RNA amount (%): 24 h, control infected without polypeptide
Protocol: • (1) RD cells were plated in five 100 mm dishes. • (2) After the cells reached 70%-80% confluence, the MEM medium containing 10% serum was replaced with a MEM medium containing 2% serum. […] When the changes were obvious, samples were collected as follows. • (4) The supernatant in the 100 mm dish was transferred into a 15 ml centrifuge tube, and centrifuged at 500 g for 5 min. • (5) The supernatant was transferred into a new 15 ml centrifuge tube, and filtered through 0.22 μm filter membrane with a 50 ml syringe. • (6) RNA was extracted from 100 μl of the supernatant obtained in step (5) and subjected to one step qRT-PCR to measure the virus titer, and the previously extracted virus RNA with known titer was handled together as a control. 3. Measure Antiviral Efficiency of Polypeptide in RD Cells. • (1) Different cells were plated in 24-well cell plates. • (2) After the cells reached 70%-80% confluence, the MEM medium containing 10% serum was replaced with a MEM medium containing 2% serum (0.5 ml/well), and 5 μl of 10^6 PFU/mL EV71 viruses per well were added. • (3) After 1 h, different polypeptides were added at a final concentration of 0.01 μM, 0.1 μM, 1 μM, 10 μM, and 50 μM, respectively. • (4) Samples were collected 24 hours after virus infection, and RNA was extracted with total RNA extraction kit as follows. • (5) The supernatant in the wells was discarded, then 350 μl of TRK Lysis Buffer was added to each well and the plate was shaken on the shaker for 5 minutes. • (6) 350 μl of 70% ethanol (DEPC-treated) was added to the well and the plate was shaken on the shaker for 5 minutes. • (7) The mixture in the well was transferred to a RNA extraction column and centrifuged at 12,000 g for 1 min. • (8) The solution collected in the recovery tube was added back to the column and centrifuged at 12,000 g for 1 min. • (9) RNA washing buffer 1 was added to the column and centrifuged at 12,000 g for 30 s. • (10) RNA washing buffer 2 was added to the column and centrifuged at 12,000 g for 1 min. • (11) Step (10) was repeated once. • (12) The column was centrifuged at 12000 g for 2 min to completely remove residual RNA washing buffer. • (13) 50 μl DEPC-treated H2O was added to the column and centrifuge at 12,000 g for 2 min. • (14) 2 μl RNA sample was used according to one step qRT-PCR kit for fluorescence quantification experiment.
RD cells added with R8 penetrating peptide (sequence: RRRRRRRR) were used as a negative control.
RD cells were used to test the antiviral effect of polypeptide P2. EV71 (MOI=0.1) was added to RD cells at 80% confluence. After 1 hour of infection, polypeptide P2 was added at concentrations of 0.01 μM, 0.1 μM, 1 μM, 10 μM, and 50 μM, respectively. The samples were collected 24 hours later, and the total RNA was extracted. The level of viral genomic RNA was detected by qRT-PCR. The cells infected with the same type virus and added with penetrating peptide R8 were used as a control group.
• (1) RD cells were plated in five 100 mm dishes. • (2) After the cells reached 70%-80% confluence, the MEM medium containing 10% serum was replaced with a MEM medium containing 2% serum. […] When the changes were obvious, samples were collected as follows. • (4) The supernatant in the 100 mm dish was transferred into a 15 ml centrifuge tube, and centrifuged at 500 g for 5 min. • (5) The supernatant was transferred into a new 15 ml centrifuge tube, and filtered through 0.22 μm filter membrane with a 50 ml syringe. • (6) RNA was extracted from 100 μl of the supernatant obtained in step (5) and subjected to one step qRT-PCR to measure the virus titer, and the previously extracted virus RNA with known titer was handled together as a control. 3. […]

[2] = test system: CVA16; type: cell-based, Coxsackievirus A16; conditions: CCK-8; for Virus inhibition rate (%): CVA16, RD cells, 24 h; for IC50: read-out: IC50 against CVA16
[3] = test system: CVA6; assay: Anti-CVA6 effect in Vero cells, qRT-PCR; type: cell-based, Coxsackievirus A6; conditions: for Virus inhibition rate (%): CVA6 MOI 0.01, Vero cells, 24 h, qRT-PCR
Protocol: • (1) Vero cells were plated in a 24-well cell plate. • (2) After the cells reached 70%-80% confluence, the MEM medium containing 10% serum was replaced with a MEM medium containing 2% serum and CVA6 virus, 0.5 ml per well. MOI of the virus was 0.01. The wells without CVA6 virus was set as control group. • (3) After 1 h, […], respectively. • (4) Samples were collected 24 hours after virus infection, and RNA was extracted with total RNA extraction kit as follows. • (5) The supernatant in the wells was discarded, then 350 μl of TRK Lysis Buffer was added to each well and the plate was shaken on the shaker for 5 minutes. • (6) 350 μl of 70% ethanol (DEPC-treated) was added to the well and the plate was shaken on the shaker for 5 minutes. • (7) The mixture in the well was transferred to a RNA extraction column and centrifuged at 12000 g for 1 min. • (8) The solution collected in the recovery tube was added back to the column and centrifuged at 12000 g for 1 min. • (9) RNA washing buffer 1 was added to the column and centrifuged at 12,000 g for 30 s. • (10) RNA washing buffer 2 was added to the column and centrifuged at 12,000 g for 1 min. • (11) Step (10) was repeated once. • (12) The column was centrifuged at 12,000 g for 2 min to completely remove residual RNA washing buffer. • (13) 50 μl DEPC-treated H2O was added to the column and centrifuge at 12,000 g for 2 min. • (14) 2 μl RNA sample was used according to one step qRT-PCR kit for fluorescence quantification experiment.

[4] = test system: CVB5; assay: Anti-CVB5 effect in RD cells, qRT-PCR; type: cell-based, Coxsackievirus B5; conditions: Example 20, read-out: IC50 against CVB5
Protocol: • (1) […] were plated in a 24-well cell plate. • (2) After the cells reached 70%-80% confluence, the MEM medium containing 10% serum was replaced with a MEM medium containing 2% serum (0.5 ml/well).

CC[C@@H](C)[C@@H](NC(=O)[C@H]1CCCN1C(C)=O)C(=O)N[C@@H](C(=O)N[C@H](Cc1c[nH]c2ccccc12)C(=O)NCC(=O)N[C@H](CCC(N)=O)C(=O)N[C@H](CCC(=O)O)C(=O)N[C@H](CCCNC(=N)N)C(=O)N[C@H](CS)C(=O)N[C@H](Cc1ccc(O)cc1)C(=O)N[C@H](CCC(N)=O)C(=O)N[C@H](CCCNC(=N)N)C(=O)N[C@@H](C(=O)N[C@H](CCC(=O)O)C(=O)N[C@H](CCC(=O)O)C(=O)N1CCC[C@@H]1C(=O)N1CCC[C@@H]1C(=O)N[C@H](CCCNC(=N)N)C(=O)N[C@H](CCCNC(=N)N)C(=O)N[C@H](CCCNC(=N)N)C(=O)N[C@H](CCC(N)=O)C(=O)N[C@H](CCCNC(=N)N)C(=O)N[C@H](CCCNC(=N)N)C(=O)N[C@H](CCCCN)C(=O)N[C@H](CCCCN)C(=O)N[C@H](CCCNC(=N)N)C(=O)NCC(=O)N[C@H](Cc1ccc(O)cc1)C(N)=O)C(C)C)[C@H](C)CC [3A-EP-DRI]
Relative viral RNA amount (%) ([1]; EV71 MOI=0.1, 0.01 μM): 75.93% and 73.36% and 72.89%
Relative viral RNA amount (%) ([1]; EV71 MOI=0.1, 0.1 μM): 72.52% and 70.59% and 61.38%
Relative viral RNA amount (%) ([1]; EV71 MOI=0.1, 1 μM): 100.5% and 95.84% and 90.71%

CCCCCCCCCCCCCCCC(=O)NCCCC[C@H](NC(=O)CCOCCOCCOCCOCCNC(=O)[C@H](CCCCN)NC(=O)[C@H](C)NC(=O)[C@@H]1CCCN1C(=O)[C@@H](NC(=O)[C@@H](NC(=O)[C@H](Cc1c[nH]c2ccccc12)NC(=O)CNC(=O)[C@H](CCC(N)=O)NC(=O)[C@H](CCC(=O)O)NC(=O)[C@H](CCCNC(=N)N)NC(=O)[C@H](CS)NC(=O)[C@H](Cc1ccc(O)cc1)NC(=O)[C@H](CCC(N)=O)NC(=O)[C@H](CCCNC(=N)N)NC(=O)[C@@H](NC(=O)[C@H](CCC(=O)O)NC(=O)[C@@H](N)CCC(=O)O)C(C)C)[C@@H](C)CC)[C@@H](C)CC)C(=O)O [3A-EP-PEG4-PA]
Relative viral RNA amount (%) ([1]; EV71 MOI=0.1, 0.01 μM): 72.5% and 68.12% and 59.1%
Relative viral RNA amount (%) ([1]; EV71 MOI=0.1, 0.1 μM): 69.96% and 68.69% and 67.81%
Relative viral RNA amount (%) ([1]; EV71 MOI=0.1, 1 μM): 107.1% and 89.26% and 75.24%

CC(=O)N[C@H](CCCNC(=N)N)C(=O)N[C@H](CS)C(=O)N[C@H](Cc1ccc(O)cc1)C(=O)N[C@H](CCC(N)=O)C(=O)N[C@H](CCCNC(=N)N)C(=O)N[C@@H](C(=O)N[C@H](CCC(=O)O)C(=O)N[C@H](CCC(=O)O)C(=O)N1CCC[C@@H]1C(=O)N1CCC[C@@H]1C(=O)N[C@H](CCCNC(=N)N)C(=O)N[C@H](CCCNC(=N)N)C(=O)N[C@H](CCCNC(=N)N)C(=O)N[C@H](CCC(N)=O)C(=O)N[C@H](CCCNC(=N)N)C(=O)N[C@H](CCCNC(=N)N)C(=O)N[C@H](CCCCN)C(=O)N[C@H](CCCCN)C(=O)N[C@H](CCCNC(=N)N)C(=O)NCC(=O)N[C@H](Cc1ccc(O)cc1)C(N)=O)C(C)C [ER-DRI] (Ac-[dR][dC][dY][dQ][dR][dV][dE][dE][dP][dP][dR][dR][dR][dQ][dR][dR][dK][dK][dR]G[dY]-NH2)
Virus inhibition rate (%) ([2]; 0.15625 μM): 7.885% and 3.667% and 8.802%
Virus inhibition rate (%) ([2]; 0.3125 μM): 12.1% and 11.19% and 21.45%
Virus inhibition rate (%) ([2]; 0.625 μM): 15.77% and 13.75% and 27.14%
Virus inhibition rate (%) ([2]; 1.25 μM): 59.05% and 58.86% and 50.79%
Virus inhibition rate (%) ([2]; 2.5 μM): 93.52% and 84.17% and 77.93%
Virus inhibition rate (%) ([2]; 5 μM): 104.7% and 107.3% and 106.2%
effect on CVA16, in words ([2]; RD cells): can significantly inhibit CVA16
IC50 ([2]; RD cells): 856 nM
Virus inhibition rate (%) ([3]; 0.625 μM): 71.8% and 74.9% and 67.5%
Virus inhibition rate (%) ([3]; 2.15 μM): 72.6% and 85.3% and 90.4%
Virus inhibition rate (%) ([3]; 2.5 μM): 91.3% and 93.4% and 91.7%
Virus inhibition rate (%) ([3]; 5 μM): 94.3% and 94.9% and 96.4%
Virus inhibition rate (%) ([3]; 10 μM): 91.4% and 97.8% and 97.9%
effect on CVA6 replication, in words ([3]; Vero cells): able to inhibit the replication of CVA6
IC50 ([3]; Vero cells, read-out: IC50 against CVA6): < 625 nM

RRRRRRRREEVRQYCRDQ [P2]
IC50 ([2]; RD cells): 1530 nM
IC50 ([1]; read-out: IC50 against EV71 by qRT-PCR): 6370 nM

YGRKKRRQRRRGSGEAVREYCK [BP8]
IC50 [4]: 1540 nM

YGRKKRRQRRRGSGEEVRQYCR [ER]
IC50 ([2]; RD cells): 3210 nM
